Results taken from PMC7503225, “Repositioning Dequalinium as Potent Muscarinic Allosteric Ligand by Combining Virtual Screening Campaigns and Experimental Binding Assays” (International Journal of Molecular Sciences, 2020).
Where two headings read alike, the source gives them in different places.

Experiments:
hM2 muscarinic receptor = target: T1, hM2 muscarinic receptor (Homo sapiens, UniProt P08172); experiment: Equilibrium inhibition binding with [3H]-NMS, CHO cell membranes; details: [3H]-NMS 0.2 nM, mean ± SEM of 3-4 experiments, read-out: pKi hM2 (converted)
T1 construct: expressed in transfected cells; host or cells: CHO cells, stably transfected; membrane fractions
T1 sequence (P08172 1-466): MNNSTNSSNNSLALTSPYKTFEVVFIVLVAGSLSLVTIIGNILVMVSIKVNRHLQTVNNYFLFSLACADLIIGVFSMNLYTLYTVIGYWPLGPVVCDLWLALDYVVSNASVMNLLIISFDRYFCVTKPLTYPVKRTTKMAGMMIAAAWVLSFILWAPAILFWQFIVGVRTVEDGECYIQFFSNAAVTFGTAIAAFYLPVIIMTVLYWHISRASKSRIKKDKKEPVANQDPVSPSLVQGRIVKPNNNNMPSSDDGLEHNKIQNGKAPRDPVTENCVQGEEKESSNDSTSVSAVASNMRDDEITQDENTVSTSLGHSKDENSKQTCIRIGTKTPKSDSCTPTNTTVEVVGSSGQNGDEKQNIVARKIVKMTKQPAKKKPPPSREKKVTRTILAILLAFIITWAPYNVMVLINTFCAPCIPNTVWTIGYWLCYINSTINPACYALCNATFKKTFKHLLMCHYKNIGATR
Experimental: (§1) All tested compounds were purchased from Merck KGaA (Darmstadt, Germany). The radioligand binding experiments were performed with membranes from Chinese Hamster Ovary (CHO) cells stably transfected with the five cloned human muscarinic receptor subtypes (hM1-5). Membrane fractions were prepared according to the protocol, which have been previously described; membranes were stored at −80 °C until use. Nonspecific binding was defined by the radioactivity bound in the presence of 10 µM atropine.
(§2) Aliquots of membranes (25–70 µg/mL) were added and incubated for 2 h at room temperature, filtered through UniFilter GF/B plates (PerkinElmer Life and Analytical Science, Monza, Italy) using a FilterMate cell harvester (PerkinElmer Life and Analytical Science, Monza, Italy). The filters were washed several times with ice-cold MilliQ water. Then, the plates were counted in a β-counter (TopCount NXT microplate scintillation counter, PerkinElmer Life and Analytical Science, Monza, Italy).
(§3) Data points from radioligand inhibition binding curve were fitted to models using nonlinear regression equation to determine inhibitor potency (IC50) estimates, which were then converted to Ki values as appropriate.
(§4) All the results are expressed as means ± SEM obtained from 3-4 independent experiments each one performed in duplicate.

hM4 muscarinic receptor = target: T2, hM4 muscarinic receptor (Homo sapiens, UniProt P08173); experiment: as above
T2 construct: expressed in transfected cells; host or cells: CHO cells, stably transfected; membrane fractions
T2 sequence (P08173 1-479): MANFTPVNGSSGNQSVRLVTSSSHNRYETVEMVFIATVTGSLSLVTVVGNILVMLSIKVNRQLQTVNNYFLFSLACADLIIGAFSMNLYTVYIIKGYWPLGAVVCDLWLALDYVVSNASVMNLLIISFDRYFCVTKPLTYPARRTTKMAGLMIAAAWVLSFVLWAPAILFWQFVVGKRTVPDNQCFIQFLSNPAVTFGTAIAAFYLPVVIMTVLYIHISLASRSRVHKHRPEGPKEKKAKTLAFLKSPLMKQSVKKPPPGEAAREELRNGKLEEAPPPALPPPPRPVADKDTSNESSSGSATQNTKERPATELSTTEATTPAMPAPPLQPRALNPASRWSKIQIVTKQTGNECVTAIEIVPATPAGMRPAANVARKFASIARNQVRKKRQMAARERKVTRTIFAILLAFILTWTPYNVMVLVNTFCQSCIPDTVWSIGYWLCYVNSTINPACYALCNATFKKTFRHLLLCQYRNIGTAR
Experimental: as §1, §2, §3, §4

hM5 muscarinic receptor = target: T3, hM5 muscarinic receptor (Homo sapiens, UniProt P08912); experiment: as above
T3 construct: expressed in transfected cells; host or cells: CHO cells, stably transfected; membrane fractions
T3 sequence (P08912 1-532): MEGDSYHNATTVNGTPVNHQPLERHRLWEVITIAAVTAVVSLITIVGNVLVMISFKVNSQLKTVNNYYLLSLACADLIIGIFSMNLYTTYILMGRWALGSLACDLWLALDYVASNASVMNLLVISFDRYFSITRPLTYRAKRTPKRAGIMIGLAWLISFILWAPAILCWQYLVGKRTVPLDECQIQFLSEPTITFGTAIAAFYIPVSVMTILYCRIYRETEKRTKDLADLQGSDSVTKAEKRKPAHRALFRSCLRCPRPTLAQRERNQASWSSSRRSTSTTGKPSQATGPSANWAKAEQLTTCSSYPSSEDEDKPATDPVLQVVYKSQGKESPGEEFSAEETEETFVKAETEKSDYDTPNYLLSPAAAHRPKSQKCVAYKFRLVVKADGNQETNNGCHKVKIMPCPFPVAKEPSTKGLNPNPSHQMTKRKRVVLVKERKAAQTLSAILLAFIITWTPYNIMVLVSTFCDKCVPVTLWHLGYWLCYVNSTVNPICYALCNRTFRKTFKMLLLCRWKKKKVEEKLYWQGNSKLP
Experimental: as §1, §2, §3, §4

[1] = target: five human muscarinic receptors subtypes (hM1–hM5); experiment: Equilibrium binding, summary statements over the five subtypes
Experimental: as §1, §2, §3, §4

[2] = ref DrugBank [16]; cited from earlier work
hM1 muscarinic receptor = target: T4, hM1 muscarinic receptor (Homo sapiens, UniProt P11229); experiment: Equilibrium inhibition binding with [3H]-NMS, CHO cell membranes; details: [3H]-NMS 0.2 nM, mean ± SEM of 3-4 experiments, read-out: pKi hM1 (converted)
T4 construct: expressed in transfected cells; host or cells: CHO cells, stably transfected; membrane fractions
T4 sequence (P11229 1-460): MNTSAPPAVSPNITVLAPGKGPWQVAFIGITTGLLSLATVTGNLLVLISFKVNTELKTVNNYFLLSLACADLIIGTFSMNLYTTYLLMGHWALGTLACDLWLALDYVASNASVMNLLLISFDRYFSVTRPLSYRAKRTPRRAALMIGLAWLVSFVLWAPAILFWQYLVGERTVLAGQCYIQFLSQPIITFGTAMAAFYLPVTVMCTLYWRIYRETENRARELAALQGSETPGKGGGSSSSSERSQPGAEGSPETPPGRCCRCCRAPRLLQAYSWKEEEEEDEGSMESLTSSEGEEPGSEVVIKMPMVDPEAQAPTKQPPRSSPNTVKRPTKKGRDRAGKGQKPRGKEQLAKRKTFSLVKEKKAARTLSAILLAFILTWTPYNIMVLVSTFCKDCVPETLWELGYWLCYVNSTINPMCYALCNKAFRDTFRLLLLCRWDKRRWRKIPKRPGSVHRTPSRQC
Experimental: as §1, §2, §3, §4

hM3 muscarinic receptor = target: T5, hM3 muscarinic receptor (Homo sapiens, UniProt P20309); experiment: as above; details: [3H]-NMS 0.2 nM, mean ± SEM of 3-4 experiments, read-out: pKi hM3 (converted)
T5 construct: expressed in transfected cells; host or cells: CHO cells, stably transfected; membrane fractions
Experimental: as §1, §2, §3, §4

[3] = target: T6, [3H]-NMS-occupied muscarinic hM2 subtype (Homo sapiens, UniProt P08172); experiment: One point kinetic (off-rate) assay of [3H]-NMS dissociation; format: binding; details: for Kd: read-out: Log Kocc hM2 (converted)
T6 construct: expressed in transfected cells; host or cells: CHO cells, stably transfected; membrane fractions
T6 sequence (P08172 1-466): T1 sequence (P08172 1-466)
Experimental: as §1
Off-rate assays were performed as described elsewhere to estimate the affinity of the ligands for the [^3H]-NMS-occupied receptor (log Kocc). Briefly, a high concentration of membranes (about 0.1 mg/mL) was incubated with a high concentration of [^3H]-NMS (2 nM) for 60 min at room temperature (mix membrane). Next, 100 µL aliquots were distributed into polypropylene tubes that were empty or in a final volume of 1 mL binding buffer with 1 µM atropine alone and in the presence of a range of concentrations of tested compound (1 nM–0.1 mM).
The effect on the radioligand dissociation of each tested ligand was determined at 0 min and at one time point, which was chosen to be ca 2.5 dissociation half-lives of [^3H]-NMS alone from each subtype receptors. Later (80 min for hM1, 20 min for hM2 and 70 min for hM5), the samples were filtered and counted as previously reported. Non specific binding was measured as previously reported.
as §4

[4] = [3H]-NMS 0.2 nM, CHO membranes, mean ± SEM of 3-4 experiments, read-out: pKi hM4 (converted)
[5] = [3H]-NMS 0.2 nM, CHO membranes, mean ± SEM of 3-4 experiments, read-out: pKi hM5 (converted)

T5 sequence (P20309 whole entry): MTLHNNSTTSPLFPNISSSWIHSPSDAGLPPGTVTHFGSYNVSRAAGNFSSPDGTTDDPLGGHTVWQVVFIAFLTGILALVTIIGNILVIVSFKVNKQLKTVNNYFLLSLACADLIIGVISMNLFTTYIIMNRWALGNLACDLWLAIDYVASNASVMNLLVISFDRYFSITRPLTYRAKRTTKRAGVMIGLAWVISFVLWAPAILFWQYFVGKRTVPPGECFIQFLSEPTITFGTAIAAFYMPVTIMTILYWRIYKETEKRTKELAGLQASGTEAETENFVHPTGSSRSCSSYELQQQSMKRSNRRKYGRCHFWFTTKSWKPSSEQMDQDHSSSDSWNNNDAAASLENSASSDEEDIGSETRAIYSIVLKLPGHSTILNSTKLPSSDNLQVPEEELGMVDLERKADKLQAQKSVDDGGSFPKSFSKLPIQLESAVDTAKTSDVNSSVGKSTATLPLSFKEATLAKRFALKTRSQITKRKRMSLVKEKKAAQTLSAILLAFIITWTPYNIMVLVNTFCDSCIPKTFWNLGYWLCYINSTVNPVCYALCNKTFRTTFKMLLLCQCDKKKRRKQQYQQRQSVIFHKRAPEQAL

## C[n+]1ccc(-c2cc[n+](C)cc2)cc1 [paraquat]
hM2 muscarinic receptor
  Ki: 23.4 µM
hM4 muscarinic receptor
  Ki: > 100 µM
hM5 muscarinic receptor
  Ki: 14.8 µM

## COCCCOc1cc(C[C@@H](C[C@H](N)[C@@H](O)C[C@H](C(=O)NCC(C)(C)C(N)=O)C(C)C)C(C)C)ccc1OC [aliskiren]
hM4 muscarinic receptor; [4]
  Ki: > 100 µM
hM5 muscarinic receptor; [5]
  Ki: > 100 µM
[1]
  pKi values (muscarinic subtypes overall): devoid of affinity for all muscarinic receptors
[2]
  logP: 3.3

## CN(CCCCCCCCCCN(C)C(=O)Oc1cccc([N+](C)(C)C)c1)C(=O)Oc1cccc([N+](C)(C)C)c1 [demecarium]
[2]
  logP: 0.6

## CC(C)OC(=O)CCC/C=C\C[C@@H]1[C@@H](CC[C@@H](O)CCc2ccccc2)[C@H](O)C[C@@H]1O [latanoprost]
[2]
  logP: 4.2

## N=C(N)c1ccc(/N=N/Nc2ccc(C(=N)N)cc2)cc1 [diminazene]
hM1 muscarinic receptor
  Ki: 3.16 µM
hM2 muscarinic receptor
  Ki: 5.62 µM
hM3 muscarinic receptor
  Ki: 4.79 µM
hM4 muscarinic receptor; [4]
  Ki: 8.91 µM
hM5 muscarinic receptor; [5]
  Ki: 4.79 µM
[3]
  Kd: 155 µM
[1]
  pKi values (muscarinic subtypes overall): around 5

## CC(=O)N(O)CCCCCNC(=O)CCC(=O)N(O)CCCCCNC(=O)CCC(=O)N(O)CCCCCN [deferoxamine]
[2]
  logP: 0.9

## CCOC(=O)CN[C@@H](C(=O)N1CC[C@H]1C(=O)NCc1ccc(/C(N)=N\O)cc1)C1CCCCC1 [ximelagatran]
[2]
  logP: 1.4

## C/C(=C\C(=O)OCCCCCCCCC(=O)O)C[C@@H]1OC[C@H](C[C@@H]2O[C@H]2[C@@H](C)[C@H](C)O)[C@@H](O)[C@H]1O [mupirocin]
[2]
  logP: 2.2

## CC(C)COCC(CN(Cc1ccccc1)c1ccccc1)N1CCCC1 (stereo not drawn) [bepridil]
[2]
  logP: 5.2

## OCc1cc(C(O)CNCCCCCCOCCCCc2ccccc2)ccc1O (stereo not drawn) [salmeterol]
hM1 muscarinic receptor
  Ki: 3.24 µM
hM3 muscarinic receptor
  Ki: 12 µM
hM4 muscarinic receptor; [4]
  Ki: 9.77 µM
hM5 muscarinic receptor; [5]
  Ki: 12.6 µM
[2]
  logP: 3.8

## CCNC(=O)CCC/C=C\C[C@@H]1[C@@H](/C=C/[C@@H](O)CCc2ccccc2)[C@H](O)C[C@@H]1O [bimatoprost]
[2]
  logP: 3.4

## CC#CCC(C)[C@H](O)/C=C/[C@@H]1[C@H]2C/C(=C/CCCC(=O)O)C[C@H]2C[C@H]1O (stereo partly drawn) [iloprost]
[2]
  logP: 4.2

## CS(=O)(=O)CCNCc1ccc(-c2ccc3ncnc(Nc4ccc(OCc5cccc(F)c5)c(Cl)c4)c3c2)o1 [lapatinib]
[2]
  logP: 5.2

## CC(=O)N1CCN(c2ccc(OCC3COC(Cn4ccnc4)(c4ccc(Cl)cc4Cl)O3)cc2)CC1 (stereo not drawn) [ketoconazole]
hM4 muscarinic receptor; [4]
  Ki: 4.57 µM
hM5 muscarinic receptor; [5]
  Ki: 7.94 µM

## O=c1[nH]c2ccccc2n1C1CCN(CCCC(c2ccc(F)cc2)c2ccc(F)cc2)CC1 [pimozide]
[2]
  logP: 6.3

## C=CCNc1nc(NCC=C)nc(N2CCN(C(c3ccc(F)cc3)c3ccc(F)cc3)CC2)n1 [almitrine]
[2]
  logP: 4.1

## CCCCC[C@H](O)/C=C/[C@H]1[C@H](O)CC(=O)[C@@H]1C/C=C\CCCC(=O)O [dinoprostone]
[2]
  logP: 2.8

## CCCCCCCCCCC[C@@H](C[C@@H]1OC(=O)[C@H]1CCCCCC)OC(=O)[C@H](CC(C)C)NC=O [orlistat]
hM1 muscarinic receptor
  Ki: > 100 µM
hM2 muscarinic receptor
  Ki: > 100 µM
hM3 muscarinic receptor
  Ki: > 100 µM
hM4 muscarinic receptor; [4]
  Ki: > 100 µM
hM5 muscarinic receptor; [5]
  Ki: > 100 µM
[3]; Table 4, affinity estimate at [3H]-NMS-occupied receptor, one time point 20 min, mean ± SEM
  Log Kocc hM2: completely inactive
[3]
  Kd: > 1000 µM
[2]
  logP: 7.5

## CC(C)OC(=O)CCC/C=C\C[C@@H]1[C@@H](/C=C/[C@@H](O)COc2cccc(C(F)(F)F)c2)[C@H](O)C[C@@H]1O [travoprost]
[2]
  logP: 4.6

## N#Cc1ccc2[nH]cc(CCCCN3CCN(c4ccc5oc(C(N)=O)cc5c4)CC3)c2c1 [vilazodone]
[2]
  logP: 4.2

## C[N+](C)(CCCCCC[N+](C)(C)C1c2ccccc2-c2ccccc21)C1c2ccccc2-c2ccccc21 [hexafluronium]
[2]
  logP: 1.8

## CC1=C(C/C=C(\C)CCC[C@H](C)CCC[C@H](C)CCCC(C)C)C(=O)c2ccccc2C1=O [phytonadione]
[2]
  logP: 9.3

## CC[N+](CC)(CCNC(=O)C(=O)NCC[N+](CC)(CC)Cc1ccccc1Cl)Cc1ccccc1Cl [ambenonium]
[2]
  logP: 2.3

## CC(C)(C)c1ccc(C(O)CCCN2CCC(C(O)(c3ccccc3)c3ccccc3)CC2)cc1 (stereo not drawn) [terfenadine]
hM4 muscarinic receptor; [4]
  Ki: 11 µM
[2]
  logP: 5.9

## CC(C)N1CCN(c2ccc(OCC3COC(Cn4cncn4)(c4ccc(Cl)cc4Cl)O3)cc2)CC1 (stereo not drawn) [terconazole]
[2]
  logP: 4.5

## CC[N+](CC)(CC)CCOc1cccc(OCC[N+](CC)(CC)CC)c1OCC[N+](CC)(CC)CC [gallamine]
hM4 muscarinic receptor; [4]
  Ki: 0.794 µM
hM5 muscarinic receptor; [5]
  Ki: 2.19 µM

## CC(C)(C)C(=O)OCOP(=O)(COCCn1cnc2c(N)ncnc21)OCOC(=O)C(C)(C)C [adefovir dipivoxil]
[2]
  logP: 1.5

## COc1ccccc1OCCNCC(O)COc1cccc2[nH]c3ccccc3c12 (stereo not drawn) [carvedilol]
[2]
  logP: 3.1

## C[C@H](Cc1cc2c(c(C(N)=O)c1)N(CCCO)CC2)NCCOc1ccccc1OCC(F)(F)F [silodosin]
[2]
  logP: 3.0
